Laboratory results: ChEMBL document CHEMBL1275569, “Plasmid-mediated 16S rRNA methylases among extended-spectrum beta-lactamase-producing Enterobacteriaceae isolates” (2008)
Converted amounts (≈) assume the structure as drawn.

How the values were obtained:
Escherichia coli [1] = assay: Antimicrobial activity against armA positive Escherichia coli COP producing beta lactamase CTX-M-14 by Etest method
Escherichia coli [2] = assay: Antimicrobial activity against armA positive Escherichia coli TOP10 producing beta lactamase CTX-M-3 with plasmid MEZ by Etest method; type: functional
Escherichia coli [3] = assay: Antimicrobial activity against armA positive Escherichia coli MEZ producing beta lactamase CTX-M-3 by Etest method; type: functional
Escherichia coli [4] = assay: Antimicrobial activity against armA positive Escherichia coli TOP10 producing beta lactamase CTX-M-3 with plasmid DU by Etest method; type: functional
Escherichia coli [5] = assay: Antimicrobial activity against Escherichia coli TOP10 by Etest method; type: functional
Klebsiella pneumoniae = assay: Antimicrobial activity against armA positive Klebsiella pneumoniae DU producing beta lactamase CTX-M-3 by Etest method; type: functional
Escherichia coli [6] = assay: Antimicrobial activity against armA positive Escherichia coli TOP10 producing beta lactamase CTX-M-3 with plasmid BEH by Etest method; type: functional
Escherichia coli [7] = assay: Antimicrobial activity against rmtB positive Escherichia coli VOG producing beta lactamase CTX-M-14 by Etest method; type: functional
Escherichia coli [8] = assay: Antimicrobial activity against beta lactamase CTX-M-14 producing Escherichia coli TOP10 harboring plasmid COP2 by Etest method; type: functional
Escherichia coli [9] = assay: Antimicrobial activity against armA positive Escherichia coli TOP10 harboring plasmid COP1 by Etest method; type: functional
Enterobacter cloacae = assay: Antimicrobial activity against armA positive Enterobacter cloacae BEH producing beta lactamase CTX-M-3 by Etest method; type: functional
Escherichia coli [10] = assay: Antimicrobial activity against Escherichia coli TOP10 harboring plasmid VOG1 expressing RmtB, TEM-1, and QepA gene by Etest method; type: functional
Escherichia coli [11] = assay: Antimicrobial activity against Escherichia coli TOP10 harboring plasmid VOG2 expressing CTX-M-14 and AAC(6 )-Ib gene by Etest method; type: functional

Row | Compound | MIC (Escherichia coli [1]) | MIC (Escherichia coli [2]) | MIC (Escherichia coli [3]) | MIC (Escherichia coli [4]) | MIC (Escherichia coli [5]) | MIC (Klebsiella pneumoniae) | MIC (Escherichia coli [6]) | MIC (Escherichia coli [7]) | MIC (Escherichia coli [8]) | MIC (Escherichia coli [9]) | MIC (Enterobacter cloacae) | MIC (Escherichia coli [10]) | MIC (Escherichia coli [11])
1 | O=C(O)c1cn(C2CC2)c2cc(N3CCNCC3)c(F)cc2c1=O [CIPROFLOXACIN] | > 32 µg/mL | < 0.002 µg/mL | > 32 µg/mL | < 0.002 µg/mL | < 0.002 µg/mL | 0.125 µg/mL (≈ 0.377 µM) | < 0.002 µg/mL | > 32 µg/mL | – | – | – | – | –
2 | CC(C)(O/N=C(\C(=O)N[C@@H]1C(=O)N2C(C(=O)[O-])=C(C[n+]3ccccc3)CS[C@H]12)c1csc(N)n1)C(=O)O [CEFTAZIDIME] | 1 µg/mL (≈ 1.83 µM) | 3 µg/mL (≈ 5.49 µM) | 3 µg/mL (≈ 5.49 µM) | 2 µg/mL (≈ 3.66 µM) | 0.38 µg/mL (≈ 0.695 µM) | 2 µg/mL (≈ 3.66 µM) | 8 µg/mL (≈ 14.6 µM) | 6 µg/mL (≈ 11 µM) | 1 µg/mL (≈ 1.83 µM) | 0.38 µg/mL (≈ 0.695 µM) | 16 µg/mL (≈ 29.3 µM) | 0.38 µg/mL (≈ 0.695 µM) | 2 µg/mL (≈ 3.66 µM)
3 | CCn1cc(C(=O)O)c(=O)c2cc(F)c(N3CCNCC3)cc21 [NORFLOXACIN] | > 256 µg/mL | 0.016 µg/mL (≈ 0.0501 µM) | > 256 µg/mL | 0.016 µg/mL (≈ 0.0501 µM) | < 0.016 µg/mL | 0.75 µg/mL (≈ 2.35 µM) | 0.016 µg/mL (≈ 0.0501 µM) | > 256 µg/mL | < 0.016 µg/mL | < 0.016 µg/mL | 1 µg/mL (≈ 3.13 µM) | 0.032 µg/mL (≈ 0.1 µM) | < 0.016 µg/mL
4 | CCN[C@@H]1C[C@H](N)[C@@H](O[C@H]2OC(CN)=CC[C@H]2N)[C@H](O)[C@H]1O[C@H]1OC[C@](C)(O)[C@H](NC)[C@H]1O [NETILMICIN] | > 256 µg/mL | > 256 µg/mL | > 256 µg/mL | > 256 µg/mL | 0.25 µg/mL (≈ 0.526 µM) | > 256 µg/mL | > 256 µg/mL | > 256 µg/mL | 0.125 µg/mL (≈ 0.263 µM) | – | > 256 µg/mL | – | 1.5 µg/mL (≈ 3.15 µM)
5 | NC[C@H]1O[C@H](O[C@H]2[C@H](O)[C@@H](O[C@H]3O[C@H](CO)[C@@H](O)[C@H](N)[C@H]3O)[C@H](N)C[C@@H]2N)[C@H](N)C[C@@H]1O [TOBRAMYCIN] | > 256 µg/mL | > 256 µg/mL | > 256 µg/mL | > 256 µg/mL | 0.38 µg/mL (≈ 0.813 µM) | > 256 µg/mL | > 256 µg/mL | > 256 µg/mL | 0.19 µg/mL (≈ 0.406 µM) | – | > 256 µg/mL | – | 3 µg/mL (≈ 6.42 µM)
6 | GENTAMICIN | – | > 256 µg/mL | > 256 µg/mL | > 256 µg/mL | 0.25 µg/mL | > 256 µg/mL | > 256 µg/mL | > 256 µg/mL | 0.125 µg/mL | > 256 µg/mL | > 256 µg/mL | > 256 µg/mL | 0.25 µg/mL
7 | NCC[C@H](O)C(=O)N[C@@H]1C[C@H](N)[C@@H](O[C@H]2O[C@H](CN)[C@@H](O)[C@H](O)[C@H]2O)[C@H](O)[C@H]1O[C@H]1O[C@H](CO)[C@@H](O)[C@H](N)[C@H]1O [AMIKACIN] | > 256 µg/mL | > 256 µg/mL | > 256 µg/mL | > 256 µg/mL | 1 µg/mL (≈ 1.71 µM) | > 256 µg/mL | > 256 µg/mL | > 256 µg/mL | 1 µg/mL (≈ 1.71 µM) | – | > 256 µg/mL | – | 1.5 µg/mL (≈ 2.56 µM)
8 | C[C@@H](O)[C@H]1C(=O)N2C(C(=O)O)=C(SCCNC=N)C[C@H]12 [IMIPENEM ANHYDROUS] | 0.19 µg/mL (≈ 0.635 µM) | 0.19 µg/mL (≈ 0.635 µM) | 0.19 µg/mL (≈ 0.635 µM) | 0.19 µg/mL (≈ 0.635 µM) | 0.19 µg/mL (≈ 0.635 µM) | 0.19 µg/mL (≈ 0.635 µM) | 0.19 µg/mL (≈ 0.635 µM) | 0.19 µg/mL (≈ 0.635 µM) | 0.19 µg/mL (≈ 0.635 µM) | 0.19 µg/mL (≈ 0.635 µM) | 0.19 µg/mL (≈ 0.635 µM) | 0.19 µg/mL (≈ 0.635 µM) | 0.19 µg/mL (≈ 0.635 µM)
9 | CO/N=C(\C(=O)N[C@@H]1C(=O)N2C(C(=O)O)=C(COC(C)=O)CS[C@H]12)c1csc(N)n1 [CEFOTAXIME] | > 32 µg/mL | > 32 µg/mL | > 32 µg/mL | > 32 µg/mL | 0.047 µg/mL (≈ 0.103 µM) | > 32 µg/mL | > 32 µg/mL | > 32 µg/mL | 8 µg/mL (≈ 17.6 µM) | 0.047 µg/mL (≈ 0.103 µM) | > 32 µg/mL | 0.047 µg/mL (≈ 0.103 µM) | –
